Here are results for ten compounds from patent US20110136801A1, “Novel Compounds” (Dainippon Sumitomo Pharma Co. Ltd., priority 2009, published 2011).

Each structure is given as a SMILES string.

The assay has as its target T1, human TLR7 (Homo sapiens, UniProt Q9NYK1).
T1 construct: expressed in transfected cells; host or cells: HEK293 cell line stably expressing the pNiFty2-SEAP reporter plasmid; TLR7 in pUNO vector, blasticidin selection
T1 sequence (Q9NYK1 27-1049): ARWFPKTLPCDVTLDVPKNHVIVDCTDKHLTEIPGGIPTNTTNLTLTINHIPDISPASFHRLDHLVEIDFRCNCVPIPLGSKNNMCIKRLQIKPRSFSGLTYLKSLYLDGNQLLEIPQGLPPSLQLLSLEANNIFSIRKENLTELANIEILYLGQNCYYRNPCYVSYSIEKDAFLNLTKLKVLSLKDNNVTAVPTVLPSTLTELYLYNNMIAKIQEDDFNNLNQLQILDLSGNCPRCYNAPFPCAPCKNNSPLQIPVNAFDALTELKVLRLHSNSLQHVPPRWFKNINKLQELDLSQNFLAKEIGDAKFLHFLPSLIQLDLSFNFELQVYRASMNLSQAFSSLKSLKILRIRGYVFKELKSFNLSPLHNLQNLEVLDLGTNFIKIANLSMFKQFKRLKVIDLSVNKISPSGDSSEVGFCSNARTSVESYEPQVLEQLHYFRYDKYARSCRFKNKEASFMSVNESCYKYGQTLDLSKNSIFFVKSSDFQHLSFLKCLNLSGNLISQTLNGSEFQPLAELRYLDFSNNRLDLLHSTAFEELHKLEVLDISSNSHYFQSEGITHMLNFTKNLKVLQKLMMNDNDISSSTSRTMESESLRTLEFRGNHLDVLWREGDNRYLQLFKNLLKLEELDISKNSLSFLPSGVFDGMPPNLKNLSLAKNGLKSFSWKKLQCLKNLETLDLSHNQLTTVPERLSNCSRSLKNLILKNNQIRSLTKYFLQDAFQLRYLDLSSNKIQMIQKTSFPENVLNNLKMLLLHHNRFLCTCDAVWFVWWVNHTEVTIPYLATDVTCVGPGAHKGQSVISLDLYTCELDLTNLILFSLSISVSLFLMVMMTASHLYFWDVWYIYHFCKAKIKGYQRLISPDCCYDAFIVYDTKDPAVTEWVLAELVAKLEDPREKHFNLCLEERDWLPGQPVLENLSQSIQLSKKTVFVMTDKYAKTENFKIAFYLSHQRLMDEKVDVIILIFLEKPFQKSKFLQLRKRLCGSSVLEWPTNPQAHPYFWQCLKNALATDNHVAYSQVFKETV
The experiment in a line: Human TLR7 Assay (SEAP reporter in HEK293 cells).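 Also: Read-out is secreted alkaline phosphatase made under an NFkB/ELAM-1 composite promoter, reporting TLR7-triggered NFkB activation.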 The format is cell-based. The conditions noted are these: HEK293 cell line expressing human TLR7 and pNiFty2-SEAP reporter, overnight incubation at 37° C., 0.1% DMSO; read-out: hTLR7 EC50.
For the compound `CCN(C)CC(=O)N(CCCn1c(CCOC)nc2c(N)nc3ccccc3c21)Cc1cccc(OCC(=O)OC(C)C)c1F` [Example 98, Isopropyl 2-{3-[(N-{3-[4-amino-2-(2-methoxyethyl)-1H-imidazo[4,5-c]quinolin-1-yl]propyl}-2-{ethyl(methyl)amino}acetamido)methyl]-2-fluorophenoxy}acetate], the EC50 (as a rule, the concentration at which the effect is half-maximal) is 228 nM.
On to `COCCc1nc2c(N)nc3ccccc3c2n1CCCCNC(=O)N(CCN1CCCCC1)Cc1ccc(F)c(OCC(=O)OC(C)C)c1` [Example 142, Isopropyl 2-{5-[(3-{4-[4-amino-2-(2-methoxyethyl)-1H-imidazo[4,5-c]quinolin-1-yl]butyl}-1-{2-(piperidin-1-yl)ethyl}ureido)methyl]-2-fluorophenoxy}acetate], for which the concentration for a half-maximal effect (EC50) is 57.5 nM.
For `CCN(CC)CC(=O)N(CCCn1c(CCOC)nc2c(N)nc3ccccc3c21)Cc1cccc(OCC(=O)OCC(C)C)c1` [Example 28, Isobutyl 2-{3-[(N-{3-[4-amino-2-(2-methoxyethyl)-1H-imidazo[4,5-c]quinolin-1-yl]propyl}-2-(diethylamino)acetamido)methyl]phenoxy}acetate] the value was 49.9 nM; for `CCOC(=O)COc1cccc(CN(CCCn2c(CCOC)nc3c(N)nc4ccccc4c32)C(=O)CN2CCCCC2)c1` [Example 32, Ethyl 2-{3-[(N-{3-[4-amino-2-(2-methoxyethyl)-1H-imidazo[4,5-c]quinolin-1-yl]propyl}-2-(piperidin-1-yl)acetamido)methyl]phenoxy}acetate], 177 nM; for `CCN(CC)CC(=O)N(CCCn1c(CCOC)nc2c(N)nc3ccccc3c21)Cc1ccc(F)c(OCC(=O)OC(C)C)c1` [Example 118, Isopropyl 2-{5-[(N-{3-[4-amino-2-(2-methoxyethyl)-1H-imidazo[4,5-c]quinolin-1-yl]propyl}-2-{diethylamino}acetamido)methyl]-2-fluorophenoxy}acetate], 77.4 nM.
For `CCOC(=O)COc1ccc(CN(CCCCn2c(CCOC)nc3c(N)nc4ccccc4c32)C(=O)NCCN2CCCCC2)cc1` [Example 125, Ethyl 2-{4-[(1-{4-[4-amino-2-(2-methoxyethyl)-1H-imidazo[4,5-c]quinolin-1-yl]butyl}-3-{2-(piperidin-1-yl)ethyl}ureido)methyl]phenoxy}acetate] the value was 11.2 nM.
The figure for `CCC(Oc1cccc(CN(CCCn2c(CCOC)nc3c(N)nc4ccccc4c32)C(=O)CN(CC)CC)c1)C(=O)OC` (stereo not shown) [Example 70, Methyl 2-{3-[(N-{3-[4-amino-2-(2-methoxyethyl)-1H-imidazo[4,5-c]quinolin-1-yl]propyl}-2-{diethylamino}acetamido)methyl]phenoxy}butanoate] is 25.9 nM.
In the case of `CCOC(=O)COc1cccc(CN(CCCn2c(CCOC)nc3c(N)nc4ccccc4c32)C(=O)CN(C)C)c1` [Example 33, Ethyl 2-{3-[(N-{3-[4-amino-2-(2-methoxyethyl)-1H-imidazo[4,5-c]quinolin-1-yl]propyl}-2-(dimethylamino)acetamido)methyl]phenoxy}acetate], the concentration for a half-maximal effect (EC50) stood at 177 nM.
For `CCCOCc1nc2c(N)nc3ccccc3c2n1CCCN(Cc1cccc(OC(C)(C)C(=O)OC)c1)C(=O)CN(CC)CC` [Example 174, Methyl 2-{3-[(N-{3-[4-amino-2-(propoxymethyl)-1H-imidazo[4,5-c]quinolin-1-yl]propyl}-2-{diethylamino}acetamido)methyl]phenoxy}-2-methylpropanoate] the value was 117 nM.
The figure for `CCOC(=O)COc1cccc(CN(CCCCn2c(CCOC)nc3c(N)nc4ccccc4c32)C(=O)CN(CC)CC)c1` [Example 44, Ethyl 2-{3-[(N-{4-[4-amino-2-(2-methoxyethyl)-1H-imidazo[4,5-c]quinolin-1-yl]butyl}-2-(diethylamino)acetamido)methyl]phenoxy}acetate] is 22.7 nM.
